Reference: US8901314B2, “Substituted pyrazoles as N-type calcium channel blockers” (Janssen Pharmaceutica NV, priority 2012, dated 2014)

Experiments:
[1] = system: Cav2.2 (N-type calcium channel; α1B, α2δ and β3 subunits stably expressed in HEK293 cells); experiment: Automated electrophysiology assay (QPatch-HT patch clamp); type: cell-based; conditions: 0.1 μM; for QPatch % Inhibition, High Freq: high frequency stimulation (15th pulse of 5 Hz train); for QPatch % Inhibition, Low Freq: low frequency stimulation (1st pulse of train)
Outline: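 Whole-cell automated patch clamp of HEK293 cells stably expressing α1B, α2δ-1 and β3, with 10 mM Ba²⁺/TEA external solution and CsCl internal solution. From −80 mV, trains of 15 pulses to +20 mV at 5 Hz every 30 s. Pulse 1 and pulse 15 currents normalized to the no-compound control period, with CdCl2 used to zero the current.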

[2] = molecular target: α1B (Cav2.2), β3 and α2δ subunits of the N-type calcium channel (stable HEK cell line) (Rattus norvegicus, UniProt Q02294); experiment: Calcium-dye indicator assay (FDSS, KCl depolarization); type: cell-based; conditions: calcium mobilization response to 50 mM KCl; six-point concentration-response
Outline: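 HEK cells stably co-expressing α1B, β3 and α2δ subunits, loaded with calcium dye, exposed to compound for 5 min before 50 mM KCl depolarization, 3 min further read on FDSS. Maximal fluorescence normalized to KCl maximum and buffer minimum; IC50 by sigmoidal nonlinear regression.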

Row | IC50 [2] | Structure (SMILES) | QPatch % Inhibition, High Freq [1] | QPatch % Inhibition, Low Freq [1]
1 | 17 nM | COc1ccccc1-n1nc(C2CC(C)(C)OC(C)(C)C2)cc1-c1ccc(C)o1 [Compound 28, 1-(2-Methoxyphenyl)-5-(5-methylfuran-2-yl)-3-(2,2,6,6-tetramethyltetrahydro-2H-pyran-4-yl)-1H-pyrazole] | −5% | −18%
2 | 6.2 nM | COc1ccccc1-n1nc(C2CC(C)(C)OC(C)(C)C2)cc1-c1ccc(Cl)s1 [Compound 14, 5-(5-Chlorothiophen-2-yl)-1-(2-methoxyphenyl)-3-(2,2,6,6-tetramethyltetrahydro-2H-pyran-4-yl)-1H-pyrazole] | 74.5% | 63%
3 | 5.3 nM | COc1ccccc1-n1nc(C2CC(C)(C)OC(C)(C)C2)cc1-c1cc(C)cs1 [Compound 18, 1-(2-Methoxyphenyl)-5-(4-methylthiophen-2-yl)-3-(2,2,6,6-tetramethyltetrahydro-2H-pyran-4-yl)-1H-pyrazole] | 16% | −23%
4 | 2 nM | COc1ccccc1-n1nc(C2CC(C)(C)OC(C)(C)C2)cc1-c1ccc(C)cc1 [Compound 10, 1-(2-Methoxyphenyl)-5-(4-methylphenyl)-3-(2,2,6,6-tetramethyltetrahydro-2H-pyran-4-yl)-1H-pyrazole] | 38% | 46%
5 | 1.3 nM | COc1ccc(-c2cc(C3CC(C)(C)OC(C)(C)C3)nn2-c2ccccc2OC)cc1 [Compound 5, 1-(2-Methoxyphenyl)-5-(4-methoxyphenyl)-3-(2,2,6,6-tetramethyltetrahydro-2H-pyran-4-yl)-1H-pyrazole] | 67% | 59%
6 | 6 nM | COc1ccccc1-n1nc(C2CC(C)(C)OC(C)(C)C2)cc1-c1ccccc1N [Compound 22, 2-[1-(2-Methoxyphenyl)-3-(2,2,6,6-tetramethyltetrahydro-2H-pyran-4-yl)-1H-pyrazol-5-yl]-aniline] | 0% | 0%
7 | 5.5 nM | COc1cccc(-c2cc(C3CC(C)(C)OC(C)(C)C3)nn2-c2ccccc2OC)c1 [Compound 20, 1-(2-Methoxyphenyl)-5-(3-methoxyphenyl)-3-(2,2,6,6-tetramethyltetrahydro-2H-pyran-4-yl)-1H-pyrazole] | 45% | 38%
8 | 12 nM | COc1ccccc1-n1nc(C2CC(C)(C)OC(C)(C)C2)cc1-c1cccs1 [Compound 26, 1-(2-Methoxyphenyl)-3-(2,2,6,6-tetramethyltetrahydro-2H-pyran-4-yl)-5-thiophen-2-yl-1H-pyrazole] | 42% | 24%
9 | 5.1 nM | COc1ccccc1-n1nc(C2CC(C)(C)OC(C)(C)C2)cc1-c1ccccc1 [Compound 16, 1-(2-Methoxyphenyl)-5-phenyl-3-(2,2,6,6-tetramethyltetrahydro-2H-pyran-4-yl)-1H-pyrazole] | 51% | 37%
10 | 1.6 nM | COc1ccccc1-n1nc(C2CC(C)(C)OC(C)(C)C2)cc1C1=CCC(C)(C)CC1 [Compound 8, 5-(4,4-Dimethylcyclohex-1-en-1-yl)-1-(2-methoxyphenyl)-3-(2,2,6,6-tetramethyltetrahydro-2H-pyran-4-yl)-1H-pyrazole] | 40% | 37%

More lines, now with the values behind:

Row | Structure (SMILES) | IC50 [2] | QPatch % Inhibition, High Freq [1] | QPatch % Inhibition, Low Freq [1]
11 | COc1ccccc1-n1nc(C2CC(C)(C)OC(C)(C)C2)cc1-c1ccc(OCCN2CCOCC2)cc1 [Compound 72, 4-(2-{4-[1-(2-Methoxyphenyl)-3-(2,2,6,6-tetramethyltetrahydro-2H-pyran-4-yl)-1H-pyrazol-5-yl]phenoxy}ethyl)morpholine] | 38 nM | 11% | 4%
12 | COc1ccccc1-n1nc([C@H]2C[C@@H](C)O[C@@H](C)C2)cc1-c1ccc(Cl)cc1 [Compound 63, 5-(4-Chlorophenyl)-3-[(2R,4r,6S)-2,6-dimethyltetrahydro-2H-pyran-4-yl]-1-(2-methoxyphenyl)-1H-pyrazole] | 2.5 nM | 74.5% | 60%
13 | CCNc1ccccc1-n1nc(C2CC(C)(C)OC(C)(C)C2)cc1-c1ccc(Cl)cc1 [Compound 66, 2-[5-(4-Chlorophenyl)-3-(2,2,6,6-tetramethyltetrahydro-2H-pyran-4-yl)-1H-pyrazol-1-yl]-N-ethylaniline] | 9.4 nM | 25% | 7%
14 | COc1ccccc1-n1nc(C2CCOC(C)(C)C2)cc1-c1ccc(Cl)cc1 (stereo not drawn) [Compound 62, 5-(4-Chlorophenyl)-3-(2,2-dimethyltetrahydro-2H-pyran-4-yl)-1-(2-methoxyphenyl)-1H-pyrazole] | 2 nM | 67% | 45%
15 | COc1ccccc1-n1nc(C2CC(C)(C)OC(C)(C)C2)cc1-c1ccc2c(c1)OCO2 [Compound 4, 5-(1,3-Benzodioxol-5-yl)-1-(2-methoxyphenyl)-3-(2,2,6,6-tetramethyltetrahydro-2H-pyran-4-yl)-1H-pyrazole] | 1 nM | 39% | 35%
16 | COc1ccccc1-n1nc(C2CC(C)(C)OC2(C)C)cc1-c1ccc(Cl)cc1 (stereo not drawn) [Compound 98, 5-(4-Chlorophenyl)-1-(2-methoxyphenyl)-3-(2,2,5,5-tetramethyltetrahydrofuran-3-yl)-1H-pyrazole] | 5.1 nM | 61% | 44.5%
17 | COc1ccccc1-n1nc(C2CC(C)(C)OC(C)(C)C2)cc1-c1ccc(Cl)cc1 [Compound 1, 5-(4-Chloro-phenyl)-1-(2-methoxy-phenyl)-3-(2,2,6,6-tetramethyl-tetrahydro-pyran-4-yl)-1H-pyrazole] | 1.7 nM | 63% | 58%
18 | CC1(C)CC(c2cc(-c3ccc(Cl)cc3)n(-c3ccccc3N)n2)CC(C)(C)O1 [Compound 68, 2-[5-(4-Chlorophenyl)-3-(2,2,6,6-tetramethyltetrahydro-2H-pyran-4-yl)-1H-pyrazol-1-yl]aniline] | 20 nM | 14% | −9%
19 | COc1ccc(-n2nc(C3CCOC(C)(C)C3)cc2-c2ccc(Cl)cc2)c(C)c1 (stereo not drawn) [Compound 75, 5-(4-Chlorophenyl)-3-(2,2-dimethyltetrahydro-2H-pyran-4-yl)-1-(4-methoxy-2-methylphenyl)-1H-pyrazole] | 80 nM | 67% | 45%
20 | CCOc1ccc(-c2cc(C3CC(C)(C)OC(C)(C)C3)nn2-c2ccccc2OC)cc1 [Compound 9, 5-(4-Ethoxyphenyl)-1-(2-methoxyphenyl)-3-(2,2,6,6-tetramethyltetrahydro-2H-pyran-4-yl)-1H-pyrazole] | 2.3 nM | 47.5% | 34%
21 | CN(C)c1ccccc1-n1nc(C2CC(C)(C)OC(C)(C)C2)cc1-c1ccc(Cl)cc1 [Compound 49, 2-[5-(4-Chlorophenyl)-3-(2,2,6,6-tetramethyltetrahydro-2H-pyran-4-yl)-1H-pyrazol-1-yl]-N,N-dimethylaniline] | 5.5 nM | 47% | 33%
22 | CCOc1ccc(-c2cc(C3CC(C)(C)OC(C)(C)C3)nn2-c2ccccc2OC)cn1 [Compound 19, 2-Ethoxy-5-[1-(2-methoxyphenyl)-3-(2,2,6,6-tetramethyltetrahydro-2H-pyran-4-yl)-1H-pyrazol-5-yl]-pyridine] | 5.4 nM | 21% | 10%
23 | COc1ccccc1-n1nc(C2CC(C)(C)OC(C)(C)C2)cc1-c1ccc(C(C)=O)cc1 [Compound 12, 1-{4-[1-(2-Methoxyphenyl)-3-(2,2,6,6-tetramethyltetrahydro-2H-pyran-4-yl)-1H-pyrazol-5-yl]phenyl}ethanone] | 2.6 nM | 41% | 30%
